Laboratory results published in publication PMC6934184, “Selective DNA-PKcs inhibition extends the therapeutic index of localized radiotherapy and chemotherapy” (The Journal of Clinical Investigation, 2019).

Biological target: T1, CDK9/cyclin K (Homo sapiens, UniProt P50750)
T1 construct: purchased Thermo Fisher Scientific (Life Technologies) SelectScreen
Test: SelectScreen LanthaScreen
Assay type: binding
Settings: read-out: % displacement
In short: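 Percent values come from Thermo SelectScreen profiling of NU5455, combining activity and binding assays. CSF1R was run in Z'LYTE format at Km app ATP, and CAMK1 in Adapta format with ATP listed at 10.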

T1 sequence (P50750 whole entry): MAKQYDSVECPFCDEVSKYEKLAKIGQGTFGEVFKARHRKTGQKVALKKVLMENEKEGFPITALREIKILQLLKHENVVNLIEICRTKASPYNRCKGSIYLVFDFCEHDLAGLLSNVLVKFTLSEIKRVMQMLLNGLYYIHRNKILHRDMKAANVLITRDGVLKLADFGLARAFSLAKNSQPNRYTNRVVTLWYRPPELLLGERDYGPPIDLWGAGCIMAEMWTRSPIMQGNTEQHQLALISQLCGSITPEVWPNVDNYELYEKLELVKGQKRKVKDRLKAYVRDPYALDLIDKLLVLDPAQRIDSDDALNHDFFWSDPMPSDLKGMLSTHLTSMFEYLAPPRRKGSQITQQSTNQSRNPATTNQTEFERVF
T1 sequence (O75909 whole entry partner): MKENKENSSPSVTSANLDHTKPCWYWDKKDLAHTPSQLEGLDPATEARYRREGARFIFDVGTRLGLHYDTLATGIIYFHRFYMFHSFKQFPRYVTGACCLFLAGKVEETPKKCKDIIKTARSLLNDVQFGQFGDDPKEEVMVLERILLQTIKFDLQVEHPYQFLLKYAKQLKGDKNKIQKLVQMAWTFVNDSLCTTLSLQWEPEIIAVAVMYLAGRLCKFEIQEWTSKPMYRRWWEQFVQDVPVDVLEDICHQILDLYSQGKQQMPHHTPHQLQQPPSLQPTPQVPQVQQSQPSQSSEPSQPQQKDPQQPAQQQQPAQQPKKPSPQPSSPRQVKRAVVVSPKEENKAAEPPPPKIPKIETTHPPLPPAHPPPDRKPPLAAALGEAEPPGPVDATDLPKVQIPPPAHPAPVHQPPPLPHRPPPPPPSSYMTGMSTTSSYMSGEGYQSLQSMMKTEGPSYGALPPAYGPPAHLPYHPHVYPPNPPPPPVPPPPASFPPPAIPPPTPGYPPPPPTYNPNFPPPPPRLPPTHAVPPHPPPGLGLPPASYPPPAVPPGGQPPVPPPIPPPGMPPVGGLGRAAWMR

For `CN(C(=O)CN1CCOCC1)c1ccc2sc3c(-c4cccc5c(=O)cc(N6CC7CCC(C6)O7)oc45)cccc3c2c1` [NU5455], the inhibition at 1 µM was 1%.
